Here are results for 16 compounds from patent US20250236608A1, “EGFR INHIBITORS” (Blueprint Medicines Corporation, priority 2022, published 2025).

Each structure is given as a SMILES string.

In one assay the target is EGFR L858R (Homo sapiens (Human), UniProt P00533, L858R). Put plainly: Biochemical EGFR inhibition assay, EGFR L858R. The note with it: Caliper mobility shift; 1.0 mM ATP or ATP Km; read-out: Enz EGFR_L858R IC50.
The next assay deals with EGFR (d746-750) (Homo sapiens (Human), UniProt P00533, DEL746-750). Put plainly: Biochemical EGFR inhibition assay, EGFR (d746-750). To be noted: Caliper mobility shift; 1.0 mM ATP or ATP Km; read-out: Enz EGFR_Exon19-del746-750 IC50.
Assay [1] has as its target pEGFR (Tyr1068) in PC-9 cells (Ex19Del) (Homo sapiens (Human), UniProt P00533, DEL746-750). Put plainly: PC-9 pEGFR AlphaLISA assay. The assay is classed as cell-based. To be noted: 4 hours incubation, p-EGFR (Tyr1068) AlphaLISA, read-out: Ext pEGFR_PC-9 Ex19Del IC50. The method in brief: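 First, cells settled overnight in 10% FBS medium. Second, a 10-point, 4-fold series of test agents was applied for 4 h at 37° C. Third, lysates were probed with AlphaLISA acceptor and donor beads, incubated overnight in the dark. Last, IC50 was taken from the dose-response.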

Sequence of EGFR (d746-750) (P00533 other isoform, or with tags, fused parts or gaps del 1-694/del 746-750 limits assumed): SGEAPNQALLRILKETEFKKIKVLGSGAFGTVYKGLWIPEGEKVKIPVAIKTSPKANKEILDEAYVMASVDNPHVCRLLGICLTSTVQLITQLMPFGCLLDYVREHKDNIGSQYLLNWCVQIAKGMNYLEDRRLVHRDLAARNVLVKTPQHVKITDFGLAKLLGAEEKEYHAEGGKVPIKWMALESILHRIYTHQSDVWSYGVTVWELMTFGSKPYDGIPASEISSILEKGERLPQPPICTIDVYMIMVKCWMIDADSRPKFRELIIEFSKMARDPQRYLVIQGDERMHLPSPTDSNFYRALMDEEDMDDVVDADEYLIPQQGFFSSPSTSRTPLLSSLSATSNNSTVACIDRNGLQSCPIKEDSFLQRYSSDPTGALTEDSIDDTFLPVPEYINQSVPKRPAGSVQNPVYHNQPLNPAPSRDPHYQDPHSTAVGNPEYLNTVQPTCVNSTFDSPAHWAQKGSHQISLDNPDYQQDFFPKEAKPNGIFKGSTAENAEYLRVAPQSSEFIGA
Sequence of pEGFR (Tyr1068) in PC-9 cells (Ex19Del) (P00533 other isoform, or with tags, fused parts or gaps del 746-750): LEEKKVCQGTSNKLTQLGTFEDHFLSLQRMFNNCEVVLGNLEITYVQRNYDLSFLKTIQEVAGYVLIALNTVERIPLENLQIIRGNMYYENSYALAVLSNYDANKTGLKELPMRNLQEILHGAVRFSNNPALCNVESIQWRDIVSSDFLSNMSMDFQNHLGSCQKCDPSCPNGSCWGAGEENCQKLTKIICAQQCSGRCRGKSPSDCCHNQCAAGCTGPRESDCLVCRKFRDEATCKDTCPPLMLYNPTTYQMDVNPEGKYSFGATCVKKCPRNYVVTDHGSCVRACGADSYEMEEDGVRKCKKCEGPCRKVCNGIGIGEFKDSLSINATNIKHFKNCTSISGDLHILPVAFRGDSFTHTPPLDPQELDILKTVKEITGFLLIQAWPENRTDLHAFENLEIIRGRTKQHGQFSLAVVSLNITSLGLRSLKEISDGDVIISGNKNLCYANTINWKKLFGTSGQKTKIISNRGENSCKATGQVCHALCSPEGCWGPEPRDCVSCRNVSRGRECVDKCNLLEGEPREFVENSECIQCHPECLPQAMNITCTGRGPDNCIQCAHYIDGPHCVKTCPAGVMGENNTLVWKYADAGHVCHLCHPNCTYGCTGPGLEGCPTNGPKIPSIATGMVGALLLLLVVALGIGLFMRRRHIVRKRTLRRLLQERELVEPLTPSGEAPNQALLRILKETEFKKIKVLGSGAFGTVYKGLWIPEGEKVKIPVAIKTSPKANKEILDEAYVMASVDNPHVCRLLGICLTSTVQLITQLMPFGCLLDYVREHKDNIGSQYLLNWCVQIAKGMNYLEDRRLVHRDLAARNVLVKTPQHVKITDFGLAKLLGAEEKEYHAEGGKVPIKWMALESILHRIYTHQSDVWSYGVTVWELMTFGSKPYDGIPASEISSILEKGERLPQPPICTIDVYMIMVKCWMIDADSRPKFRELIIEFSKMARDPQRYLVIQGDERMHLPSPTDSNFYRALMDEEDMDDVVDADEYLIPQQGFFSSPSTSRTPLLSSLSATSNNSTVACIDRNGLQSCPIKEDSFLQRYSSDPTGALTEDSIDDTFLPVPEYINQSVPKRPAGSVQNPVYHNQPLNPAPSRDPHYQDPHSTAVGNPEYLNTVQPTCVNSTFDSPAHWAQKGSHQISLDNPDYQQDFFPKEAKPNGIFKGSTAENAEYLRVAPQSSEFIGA
Sequence of EGFR L858R (P00533 25-1210 L858R): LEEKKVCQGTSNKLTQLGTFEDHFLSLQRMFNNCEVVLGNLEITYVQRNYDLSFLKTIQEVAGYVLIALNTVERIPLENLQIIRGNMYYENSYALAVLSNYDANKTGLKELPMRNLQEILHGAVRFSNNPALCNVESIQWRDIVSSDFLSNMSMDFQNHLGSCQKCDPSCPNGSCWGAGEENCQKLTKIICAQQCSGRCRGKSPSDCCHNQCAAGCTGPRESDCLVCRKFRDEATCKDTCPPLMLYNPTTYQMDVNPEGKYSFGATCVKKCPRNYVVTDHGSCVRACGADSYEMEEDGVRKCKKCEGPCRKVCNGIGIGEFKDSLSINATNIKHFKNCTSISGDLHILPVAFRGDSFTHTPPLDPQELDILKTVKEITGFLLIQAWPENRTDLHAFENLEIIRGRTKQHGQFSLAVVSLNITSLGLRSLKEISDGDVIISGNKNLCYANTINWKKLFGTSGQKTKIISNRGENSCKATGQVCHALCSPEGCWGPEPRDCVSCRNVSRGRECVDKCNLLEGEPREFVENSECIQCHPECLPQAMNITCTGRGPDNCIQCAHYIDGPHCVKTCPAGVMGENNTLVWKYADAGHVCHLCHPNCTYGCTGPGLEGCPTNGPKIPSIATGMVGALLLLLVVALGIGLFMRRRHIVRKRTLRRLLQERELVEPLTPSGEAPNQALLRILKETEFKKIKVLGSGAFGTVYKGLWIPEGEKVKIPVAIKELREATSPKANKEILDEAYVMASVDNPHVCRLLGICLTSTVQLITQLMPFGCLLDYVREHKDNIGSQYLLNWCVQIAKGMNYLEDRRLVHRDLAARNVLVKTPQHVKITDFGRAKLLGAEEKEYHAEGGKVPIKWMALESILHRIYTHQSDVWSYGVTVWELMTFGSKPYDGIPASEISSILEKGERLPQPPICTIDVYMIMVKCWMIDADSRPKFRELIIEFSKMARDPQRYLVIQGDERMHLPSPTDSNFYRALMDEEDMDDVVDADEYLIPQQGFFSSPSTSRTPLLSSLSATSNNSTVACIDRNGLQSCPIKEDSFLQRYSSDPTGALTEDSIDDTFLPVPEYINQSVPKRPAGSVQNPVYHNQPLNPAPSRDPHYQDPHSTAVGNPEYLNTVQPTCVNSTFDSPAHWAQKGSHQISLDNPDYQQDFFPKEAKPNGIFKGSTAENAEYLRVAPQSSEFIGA

`COc1cc2ncnc(-c3cn(C)nc3-c3ccccc3)c2cc1OC(=O)N1CCO[C@H](C)[C@@H]1C` [Example 94, 7-methoxy-4-(1-methyl-3-phenyl-1H-pyrazol-4-yl)quinazolin-6-yl (2R,3S)-2,3-dimethylmorpholine-4-carboxylate]: the IC50 stood at 6.4 nM at EGFR L858R, 3.2 nM at EGFR (d746-750) and 11.3 nM in assay [1].
The like results for `COc1cc2ncnc(-c3cn(C)nc3-c3ccccc3)c2cc1NC(=O)[C@@H](C)F` (single isomer, unassigned) [Example 245, (R)-2-fluoro-N-(7-methoxy-4-(1-methyl-3-phenyl-1H-pyrazol-4-yl)quinazolin-6-yl) propenamide or (S)-2-fluoro-N-(7-methoxy-4-(1-methyl-3-phenyl-1H-pyrazol-4-yl)quinazolin-6-yl) propenamide] were, in that order, 1.9 nM, 1 nM and 2.6 nM.
The like results for `COCC1(C(=O)Nc2cc3c(-c4cn(C)nc4-c4ccccc4)ncnc3cc2OC)CCC1` [Example 214, N-(7-methoxy-4-(1-methyl-3-phenyl-1H-pyrazol-4-yl)quinazolin-6-yl)-1-(methoxymethyl)cyclobutane-1-carboxamide] were, in that order, 1.6 nM, 0.9 nM and 1.2 nM.
As to `COc1cc2ncnc(-c3cn(C)nc3-c3ccccc3)c2nc1O[C@@H](C)c1cn(C)nn1` [Example 44, (S)-7-methoxy-6-(1-(1-methyl-1H-1,2,3-triazol-4-yl)ethoxy)-4-(1-methyl-3-phenyl-1H-pyrazol-4-yl)pyrido[3,2-d]pyrimidine], the IC50 was 3.9 nM at EGFR L858R, 2.4 nM on EGFR (d746-750) and 14.6 nM in assay [1].
The like results for `CCn1cc(-c2ncnc3cc(OC)c([C@@H](C)O)cc23)c(-c2ccccc2)n1` (single isomer, unassigned) [Example 106, (R)-1-(4-(1-ethyl-3-phenyl-1H-pyrazol-4-yl)-7-methoxyquinazolin-6-yl)ethan-1-ol or (S)-1-(4-(1-ethyl-3-phenyl-1H-pyrazol-4-yl)-7-methoxyquinazolin-6-yl)ethan-1-ol] were, in that order, 3.4 nM, 1.8 nM and 10.9 nM.
As for `COc1cc2ncnc(-c3cn(C)nc3-c3ccccc3)c2nc1-c1ccc2c(c1)CN(C)C2=O` [Example 153, 5-(7-methoxy-4-(1-methyl-3-phenyl-1H-pyrazol-4-yl)pyrido[3,2-d]pyrimidin-6-yl)-2-methylisoindolin-1-one], the concentration for half-maximal inhibition (IC50) was determined as 1 nM on EGFR L858R, 0.5 nM on EGFR (d746-750) and 0.9 nM in assay [1].
As to `COc1cc2ncnc(-c3cn(C)nc3-c3ccccc3)c2cc1NC(=O)C(C)(C)N(C)C` [Example 246, 2-(dimethylamino)-N-(7-methoxy-4-(1-methyl-3-phenyl-1H-pyrazol-4-yl)quinazolin-6-yl)-2-methylpropanamide], the IC50 is 5.6 nM at EGFR L858R, 2.5 nM at EGFR (d746-750) and 7.8 nM in assay [1].
In the case of `COc1cc2ncnc(-c3cn(C)nc3-c3ccc(F)cc3F)c2nc1NC(=O)[C@@]12C[C@@H]1CN(C)C2` (single isomer, unassigned) [Example 423, (1S,5S)—N-(4-(3-(2,4-difluorophenyl)-1-methyl-1H-pyrazol-4-yl)-7-methoxypyrido[3,2-d]pyrimidin-6-yl)-3-methyl-3-azabicyclo[3.1.0]hexane-1-carboxamide or (1R,5R)—N-(4-(3-(2,4-difluorophenyl)-1-methyl-1H-pyrazol-4-yl)-7-methoxypyrido[3,2-d]pyrimidin-6-yl)-3-methyl-3-azabicyclo[3.1.0]hexane-1-carboxamide], the concentration for half-maximal inhibition (IC50) stood at 4.1 nM on EGFR L858R, 1.6 nM on EGFR (d746-750) and 3.8 nM in assay [1].
`COc1cc2ncnc(-c3cn(C)nc3-c3ccccc3)c2nc1O[C@H](C)c1nnc(C)s1` (single isomer, unassigned) [Example 52, (R)-2-(1-((7-methoxy-4-(1-methyl-3-phenyl-1H-pyrazol-4-yl)pyrido[3,2-d]pyrimidin-6-yl)oxy)ethyl)-5-methyl-1,3,4-thiadiazole or (S)-2-(1-((7-methoxy-4-(1-methyl-3-phenyl-1H-pyrazol-4-yl)pyrido[3,2-d]pyrimidin-6-yl)oxy)ethyl)-5-methyl-1,3,4-thiadiazole]: the values for the IC50 (on EGFR L858R; at EGFR (d746-750); in assay [1]) were 12.3 nM, 2.7 nM and 6.3 nM, respectively.
The like results for `COc1cc2ncnc(-c3cn(CC(F)F)nc3-c3ccccc3)c2cc1OC(=O)N1CCN(C)C[C@@H]1C` [Example 70, 4-(1-(2,2-difluoroethyl)-3-phenyl-1H-pyrazol-4-yl)-7-methoxyquinazolin-6-yl (S)-2,4-dimethylpiperazine-1-carboxylate] were, in that order, 2.7 nM, 1.7 nM and 1.6 nM.
Take `COc1cc2ncnc(-c3cn(C)nc3-c3ccccc3)c2cc1NC(=O)c1cccnc1C` [Example 195, N-(7-methoxy-4-(1-methyl-3-phenyl-1H-pyrazol-4-yl)quinazolin-6-yl)-2-methylnicotinamide]: the figures for the IC50 (at EGFR L858R; at EGFR (d746-750); in assay [1]) were 3.8 nM, 1.6 nM and 5.9 nM, respectively.
Turning to `COc1cc2ncnc(-c3cn(CC(F)F)nc3-c3ccccc3)c2nc1NC(=O)c1ccc(C2CC2)nc1` [Example 358, 6-cyclopropyl-N-(4-(1-(2,2-difluoroethyl)-3-phenyl-1H-pyrazol-4-yl)-7-methoxypyrido[3,2-d]pyrimidin-6-yl)nicotinamide], the half-maximal inhibitory concentration (IC50) came to 1.8 nM at EGFR L858R, 1.1 nM at EGFR (d746-750) and 1 nM in assay [1].
The like results for `COc1cc2ncnc(-c3cn(C)nc3-c3ccccc3)c2cc1NC(=O)[C@H]1C[C@@H]1C(F)(F)F` [Example 287, (1S,2S)—N-(7-methoxy-4-(1-methyl-3-phenyl-1H-pyrazol-4-yl)quinazolin-6-yl)-2-(trifluoromethyl)cyclopropane-1-carboxamide] were, in that order, 4.5 nM, 1.2 nM and 13 nM.
With `CCC(=O)Nc1cc2c(-c3cnn(CC(F)F)c3-c3ccccc3)ncnc2cc1OC` [Example 500], the values for the IC50 (at EGFR L858R; on EGFR (d746-750); in assay [1]) were 2.9 nM, 7 nM and 55.7 nM, respectively.
Turning to `COc1cc2ncnc(-c3cn(C)nc3-c3ccccc3F)c2nc1NC(=O)C1(C(F)F)CC1` [Example 366, 1-(difluoromethyl)-N-(4-(3-(2-fluorophenyl)-1-methyl-1H-pyrazol-4-y1)-7-methoxypyrido[3,2-d]pyrimidin-6-yl)cyclopropane-1-carboxamide], the IC50 at EGFR L858R is 1.4 nM; on EGFR (d746-750), 0.8 nM; in assay [1] it was 1.4 nM.
Consider `CCOc1cc2ncnc(-c3cn(C)nc3-c3ccccc3)c2cc1N1CCN(C)C[C@@H]1C` [Example 174, (S)-6-(2,4-dimethylpiperazin-1-yl)-7-ethoxy-4-(1-methyl-3-phenyl-1H-pyrazol-4-yl)quinazoline], for which the values for the IC50 (at EGFR L858R; on EGFR (d746-750); in assay [1]) were 2.8 nM, 2.3 nM and 3.4 nM, respectively.
